Measured values reported in PMC3323742 (Biochemistry, 2012).

Biological target: 2-methylisoborneol synthase (MIBS), full length (Streptomyces coelicolor, UniProt Q9F1Y6, E193A)
Assay: GC-MS of pentane-extracted products
Format: biochemical
Details: 60 μM substrate, 5 μM enzyme, 10 mM MgCl2, pH 7.0, 30 °C, 12 h

Chain of 2-methylisoborneol synthase (MIBS), full length (Q9F1Y6 whole entry E193A): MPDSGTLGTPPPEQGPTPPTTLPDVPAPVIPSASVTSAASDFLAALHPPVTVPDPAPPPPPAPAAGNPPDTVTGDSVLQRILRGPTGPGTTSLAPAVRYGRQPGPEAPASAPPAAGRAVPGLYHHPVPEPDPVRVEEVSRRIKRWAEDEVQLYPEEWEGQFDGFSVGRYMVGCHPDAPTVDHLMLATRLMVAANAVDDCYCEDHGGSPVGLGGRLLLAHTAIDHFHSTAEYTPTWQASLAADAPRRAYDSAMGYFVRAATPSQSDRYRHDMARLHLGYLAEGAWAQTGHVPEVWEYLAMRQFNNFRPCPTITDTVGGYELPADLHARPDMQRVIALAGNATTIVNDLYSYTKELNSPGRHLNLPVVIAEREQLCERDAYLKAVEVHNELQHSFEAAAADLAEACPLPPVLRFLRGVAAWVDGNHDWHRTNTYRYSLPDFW

In the case of `CC(C)=CCC/C(C)=C(\C)COP(=O)(O)OP(=O)(O)O` [2MGPP, 2-methylgeranyl diphosphate], the “GC-MS of pentane-extracted products” value was “overnight incubation of the E193A, E193L, and E193D mutants with 2MGPP”.
